The values that follow are results of earlier work, collected in patent US12023334B2, “Composition including rilpivirine and method for treating tumors or cancer” (APTORUM THERAPEUTICS LIMITED, priority 2019, dated 2024).

The subject of one series is U87 glioblastoma cells. The note with it: Journal of Cancer 9(1):117-128, 2018; cited from earlier work.
The next series concerns A-375 melanoma. The note with it: animal experiments (Oncogene 24:3923-3931, 2005); cited from earlier work.
Series [1] relates to PC3 prostate cancer cell lines. The settings on record: animal experiments (Oncogene 24:3923-3931, 2005); cited from earlier work.
For another series, the system named is pancreatic cancer cells. The settings on record: in vitro (PloS ONE 10(6):e0130277, 2015); cited from earlier work.

Molecules are shown by their SMILES.

As for `Cc1cc(C)c(Nc2ccnc(Nc3ccc(C#N)cc3)n2)c(C)c1` [Dapivirine], the “tumor growth of U87 glioblastoma cells” value in the series with U87 glioblastoma cells is “inhibit tumor growth”.
As to `O=C1Nc2ccc(Cl)cc2[C@@](C#CC2CC2)(C(F)(F)F)O1` [efavirenz], the “tumorigenic growth of A-375 melanoma” value in the series on A-375 melanoma was “antagonize tumorigenic growth”. The “tumorigenic growth of PC3 prostate cancer cell lines” value in series [1] was “antagonize tumorigenic growth”. The “toxic potential against pancreatic cancer cells” value in the series on pancreatic cancer cells is recorded as “high toxic potential”.
Regarding `Cc1ccnc2c1NC(=O)c1cccnc1N2C1CC1` [nevirapine], the “tumorigenic growth of A-375 melanoma” value with A-375 melanoma is on record as “antagonize tumorigenic growth”. Besides, the “tumorigenic growth of PC3 prostate cancer cell lines” value in series [1] is “antagonize tumorigenic growth”.
